For data set [1], the system named is HIV-1 (RF) in MT-2 cells. In words: microbe, parasite or virus in culture. The format is cell-based. The gist of the method:
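HIV-1 laboratory strains (RF, MN, IIIB) grown in H9 cells in RPMI 1640 with 5% FCS; infections in MT-2 cells. Viral RNA quantified by hybridization with biotinylated gag/pol capture probes on streptavidin plates and alkaline phosphatase-conjugated reporter probes; BH10 gag-pol in vitro transcripts serve as RNA standards.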

In data set [2] the target is T1, HIV protease (Human immunodeficiency virus type 1 group M subtype B, UniProt P04585).
T1 construct: plasmid containing HIV protease under the control of an inducible T7 promoter; made in house; host or cells: E. coli (inclusion bodies, T7 promoter)
As to the kind of experiment: biochemical. Also on record: species or system HIV-1. As to the method:
HIV Protease Inhibition Assay—Spectroscopic Method
Inclusion bodies were solubilized in 8M urea, 50 mM tris pH 8.0. Protease activity was recovered by dilution 20-fold into buffer containing 50 mM sodium acetate pH 5.5, 1 mM EDTA, 10% glycerol and 5% ethylene glycol. Enzyme was used at a final concentration of 1.0-10 ug/ml.
Stock solutions of 10 mM were prepared in DMSO.
All further dilutions were done in DMSO.

Setting [3] is: Human immunodeficiency virus 1, MT2, Table 1c, read-out: IC90.
[4] abbreviates: Human immunodeficiency virus 1, MT2, Table 2A, read-out: IC90.
The mark [5] stands for this setting: Human immunodeficiency virus 1, MT2, second table headed Table 2A, read-out: IC90.
[6] abbreviates: second table headed Table 2A, read-out: Ki.

The structures appear in SMILES notation. pKi: −log10 of the molar value. In brackets after ≈: the same amount, converted by molar mass. Where two headings read alike, the source gives them in different places.

The values below come from patent publication USRE37781E1, “Substituted cyclic carbonyls and derivatives thereof useful as retroviral protease inhibitors” (DuPont Pharmaceuticals Company, priority 1991, dated 2002).

Turning to `N#CN=C1N(Cc2ccc(CO)cc2)C(Cc2ccccc2)C(O)C(O)C(Cc2ccccc2)N1Cc1ccc(CO)cc1` (stereo not drawn) [Example 1CN], the melting point (in general, the temperature of the solid-liquid transition) is 100.9 °C. Moreover, the IC90 – broadly, the point of the concentration-response curve where the effect stands at 90% – in data set [1] (setting [3]) is less than 10 µg/mL. Also, the pKi – broadly, the Ki on a negative log10 scale, so that one unit is a factor of ten – in data set [2] (Ki) is 6.00 to 8.00.
`N#CN=C1N(Cc2cccc(O)c2)C(Cc2ccccc2)C(O)C(O)C(Cc2ccccc2)N1Cc1cccc(O)c1` (stereo not drawn) [Example 1CD] yielded a melting point of 124 °C. The IC90 in data set [1] (setting [3]) was less than 10 µg/mL. The compound also gave a pKi in data set [2] (Ki) of more than 8.00.
Take `C=CCN1C(=O)N(Cc2ccccc2)C(Cc2ccccc2)C(O)C(O)C1Cc1ccccc1` (stereo not drawn) [Example 2G]: the melting point was 226.5 °C. For the same compound, the concentration for an effect of 90% (IC90) in data set [1] (setting [4]) was less than 10 µg/mL. Moreover, the IC90 in data set [1] (setting [5]) is less than 10 µg/mL. Also, the pKi in data set [2] (Table 2A, read-out: Ki) is more than 8.00. The pKi in data set [2] (setting [6]) was more than 8.00.
For the compound `N#CN=C1N(Cc2ccc([N+](=O)[O-])cc2)C(Cc2ccccc2)C(O)C(O)C(Cc2ccccc2)N1Cc1ccc([N+](=O)[O-])cc1` (stereo not drawn) [Example 1CB], the melting point worked out at 130.3 °C. In data set [1] (Human immunodeficiency virus 1, MT2), this compound came in with an IC90 of 10 to 100 µg/mL (≈ 16.1 to 161 µM). Besides, in data set [2] (Ki, Table 1c, cyclic guanidines), the pKi is 6.00 to 8.00.
In turn, `N#CN=C1N(Cc2ccccc2)C(Cc2ccccc2)C(O)C(O)C(Cc2ccccc2)N1Cc1ccccc1` (stereo not drawn) [Example 1BZ] returned a melting point of 94 °C. In addition, in data set [1] (setting [3]), the IC90 was less than 10 µg/mL. This compound also gave a pKi in data set [2] (Ki) of 6.00 to 8.00.
As for `C=CCN1C(=O)N(CC=C(C)C)C(Cc2ccccc2)C(O)C(O)C1Cc1ccccc1` (stereo not drawn) [Example 2C], the melting point is 62 °C. Also, the IC90 in data set [1] (setting [4]) is less than 10 µg/mL. Besides, the IC90 in data set [1] (setting [5]) is less than 10 µg/mL. Further, in data set [2] (Table 2A, read-out: Ki), the pKi is more than 8.00. For the same compound, in data set [2] (setting [6]), the pKi is more than 8.00.
For the compound `CC(C)=CCN1C(=O)N(CC=C(C)C)C(Cc2ccccc2)C(O)C(O)C1Cc1ccccc1` (stereo not drawn) [Example 2A], the melting point was determined as 165.1 °C. Further, the IC90 in data set [1] (setting [4]) is less than 10 µg/mL. Moreover, the IC90 in data set [1] (setting [5]) is less than 10 µg/mL. Also, the pKi in data set [2] (Table 2A, read-out: Ki) is more than 8.00. For the same compound, the pKi in data set [2] (setting [6]) was more than 8.00.
Consider `C=CCN1C(=NC#N)N(CC=C)C(Cc2ccccc2)C(O)C(O)C1Cc1ccccc1` (stereo not drawn) [Example 1BW], for which the melting point worked out at 70.2 °C. Also, the IC90 in data set [1] (setting [3]) is 10 to 100 µg/mL (≈ 23.2 to 232 µM). The compound also had a pKi in data set [2] (Ki) of 6.00 to 8.00.
On to `N#CN=C1N(Cc2ccc(N)cc2)C(Cc2ccccc2)C(O)C(O)C(Cc2ccccc2)N1Cc1ccc(N)cc1` (stereo not drawn) [Example 1CE], for which the melting point was determined as 226.3 °C. In addition, the IC90 in data set [1] (setting [3]) is less than 10 µg/mL. This compound gave a pKi in data set [2] (Ki) of 6.00 to 8.00.
`CCCN1C(=NC#N)N(CCC)C(Cc2ccccc2)C(O)C(O)C1Cc1ccccc1` (stereo not drawn) [Example 1CL]: the melting point amounted to 216.6 °C. The IC90 in data set [1] (setting [3]) is less than 10 µg/mL. Also, the pKi in data set [2] (Ki) was 6.00 to 8.00.
The matching figures for `N#CN=C1N(CC2CC2)[C@H](Cc2ccccc2)[C@H](O)[C@@H](O)[C@@H](Cc2ccccc2)N1CC1CC1` [Example 1BS]: 211.2 °C, less than 10 µg/mL and 6.00 to 8.00.
As for `N#CN=C1N(Cc2cccc(C=NO)c2)C(Cc2ccccc2)C(O)C(O)C(Cc2ccccc2)N1Cc1cccc(C=NO)c1` (stereo not drawn) [Example 1CQ], the melting point was found to be 121.2 °C. Besides, in data set [1] (setting [3]), the IC90 was less than 10 µg/mL. In data set [2] (Ki), this compound gave a pKi of more than 8.00.
`N#CN=C1N(Cc2ccc3ccccc3c2)C(Cc2ccccc2)C(O)C(O)C(Cc2ccccc2)N1Cc1ccc2ccccc2c1` (stereo not drawn) [Example 1BY]: the melting point was found to be 111.1 °C. Further, the IC90 in data set [1] (setting [3]) was more than 100 µg/mL. Also, the pKi in data set [2] (Ki) is 6.00 to 8.00.
For `CCCCN1C(=NC#N)N(CCCC)C(Cc2ccccc2)C(O)C(O)C1Cc1ccccc1` (stereo not drawn) [Example 1BX], the melting point was 58.3 °C. In addition, the IC90 in data set [1] (setting [3]) is less than 10 µg/mL. In data set [2] (Ki), this compound showed a pKi of more than 8.00.
For the compound `N#CN=C1N(CC2CCCC2)C(Cc2ccccc2)C(O)C(O)C(Cc2ccccc2)N1CC1CCCC1` (stereo not drawn) [Example 1BV], the melting point is 99.7 °C. For the same compound, the IC90 in data set [1] (setting [3]) is less than 10 µg/mL. This compound showed a pKi in data set [2] (Ki) of more than 8.00.
In the case of `N#CN=C1N(Cc2cccc(N)c2)C(Cc2ccccc2)C(O)C(O)C(Cc2ccccc2)N1Cc1cccc(N)c1` (stereo not drawn) [Example 1CF], the melting point stood at 114.4 °C. For the same compound, the IC90 in data set [1] (setting [3]) is less than 10 µg/mL. In addition, the pKi in data set [2] (Ki) is more than 8.00.
